The values below come from PubChem BioAssay AID493145 (Sanford-Burnham Center for Chemical Genomics, 2011).

Several values for one entry are separate records, joined by “and”; a condition that tells them apart may be missing. Identical values can stand only once. Activity calls are given as the source filed them. How the calls were made is not given here.

In this experiment the target is Intestinal-type alkaline phosphatase (Homo sapiens) (UniProt P09923). Briefly: human IAP activators, SAR follow-up, mouse IAP activator project, biochemical, human enzyme for mouse series (AID 493145). The conditions noted are these: purified human intestinal alkaline phosphatase, enzymatic activity.
Sequence of Intestinal-type alkaline phosphatase (Homo sapiens) (P09923 whole entry, looked up): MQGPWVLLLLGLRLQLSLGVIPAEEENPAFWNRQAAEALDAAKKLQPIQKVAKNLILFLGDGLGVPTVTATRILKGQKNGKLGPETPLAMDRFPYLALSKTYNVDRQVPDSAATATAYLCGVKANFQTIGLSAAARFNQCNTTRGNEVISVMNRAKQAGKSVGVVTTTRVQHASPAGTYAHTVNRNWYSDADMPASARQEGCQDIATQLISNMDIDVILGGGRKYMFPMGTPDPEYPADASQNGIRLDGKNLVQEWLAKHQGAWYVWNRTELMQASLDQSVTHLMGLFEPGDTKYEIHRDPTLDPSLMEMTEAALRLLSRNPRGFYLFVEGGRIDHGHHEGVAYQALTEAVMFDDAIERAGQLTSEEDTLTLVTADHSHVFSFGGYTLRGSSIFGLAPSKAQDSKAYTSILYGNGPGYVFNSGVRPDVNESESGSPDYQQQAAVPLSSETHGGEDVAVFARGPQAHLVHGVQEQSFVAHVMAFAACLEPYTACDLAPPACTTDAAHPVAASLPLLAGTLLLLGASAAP
The EC50 is the concentration at which the effect is half-maximal. Turning to `O=C(CN1C(=O)/C(=C/c2ccco2)SC1=S)NC1C=CS(=O)(=O)C1` (stereo not drawn), the EC50 is 52.6 µM.

In the case of `COc1ccc(N2CCN(C(=O)CN3C(=O)/C(=C\c4ccco4)SC3=S)CC2)cc1`, the EC50 is > 100 µM (inactive).

`Cc1ccc(/C=N/NC(=O)c2cc(O)c(O)c(O)c2)cc1`: the EC50 was > 100 µM (inactive).

On to `O=C(CN1C(=O)/C(=C/c2ccco2)SC1=S)Nc1ccc(C(=O)O)c(O)c1`, for which the EC50 was > 100 µM (inactive).

On to `Cc1ccc(/C=C2\SC(=S)N(C3CCS(=O)(=O)C3)C2=O)o1` (stereo not drawn), for which the EC50 is > 100 µM (inactive).

For `O=C(CCNS(=O)(=O)c1ccc2[nH]c(=O)oc2c1)Nc1cccc(-c2ccno2)c1`, the EC50 was > 100 µM (inactive).

Regarding `N#Cc1c(SCC(=O)Nc2nncs2)sc2c(O)cc(=O)[nH]c12`, the EC50 is > 100 µM (inactive).

With `COC(=O)c1ccc(C)c(NC(=O)CSc2sc3c(O)cc(=O)[nH]c3c2C#N)c1`, the EC50 was > 100 µM (inactive).

With `COc1ccc(OC)c(NC(=O)CSc2sc3c(O)cc(=O)[nH]c3c2C#N)c1`, the EC50 is > 100 µM (inactive).

In the case of `O=C(N/N=C/c1ccsc1)c1cc(O)c(O)c(O)c1`, the EC50 is > 100 µM (inactive).

On to `C/C(=N\NC(=O)c1cc(O)c(O)c(O)c1)c1ccncc1`, for which the EC50 was > 100 µM (inactive).

Turning to `O=C(CCN1C(=O)/C(=C/c2ccco2)SC1=S)Nc1ccc(C(=O)O)c(O)c1`, the EC50 was > 100 µM (inactive).

As to `O=C(CN1C(=O)/C(=C/c2ccco2)SC1=S)Nc1ccc2nccnc2c1`, the EC50 is > 100 µM (inactive).

In the case of `CC(C)C(C(=O)NC1CCS(=O)(=O)C1)N1C(=O)/C(=C\c2ccco2)SC1=S` (stereo not drawn), the EC50 is > 100 µM (inactive).

Take `Cc1ccc(NC(=O)CCNS(=O)(=O)c2ccc3[nH]c(=O)oc3c2)cc1N(C)C`: the EC50 was > 100 µM (inactive).

As to `O=C(CN1C(=O)/C(=C/c2ccco2)SC1=S)Nc1cccc(C(=O)O)c1`, the EC50 was > 100 µM (inactive).

As for `N#Cc1c(SCC(=O)Nc2ccc(Cl)cc2Cl)sc2c(O)cc(=O)[nH]c12`, the EC50 is > 100 µM (inactive).

Regarding `CCOc1ccc2nc(NC(=O)CN(C)S(=O)(=O)c3ccc4[nH]c(=O)oc4c3)sc2c1`, the EC50 was > 100 µM (inactive).

For `O=C(CN1C(=O)/C(=C/c2ccco2)SC1=S)Nc1ccc(O)c(C(=O)O)c1`, the EC50 is > 100 µM (inactive).

Turning to `O=S(=O)(Nc1ncccn1)c1ccc(NC(=S)NCCC(c2ccccc2)c2ccccc2)cc1`, the EC50 is > 100 µM (inactive).

As for `O=C1/C(=C/c2ccco2)SC(=S)N1C1CCS(=O)(=O)C1` (stereo not drawn), the concentration for a half-maximal effect (EC50) was 42.6 µM.

On to `COc1cc(C(=O)NNC(=S)NC(=O)c2ccccc2C)cc(OC)c1OC`, for which the EC50 is 21.4 µM.

On to `O=C(NNC(=O)c1cc(O)c(O)c(O)c1)NC1CCCCC1`, for which the EC50 was > 100 µM (inactive).

As for `CCN(CC)C(=O)CSc1sc2c(O)cc(=O)[nH]c2c1C#N`, the EC50 was > 100 µM (inactive).

Regarding `CCOc1ccccc1CNC(=O)CCNS(=O)(=O)c1ccc2[nH]c(=O)oc2c1`, the EC50 was > 100 µM (inactive).

Regarding `COc1ccccc1NC(=O)CSc1sc2c(O)cc(=O)[nH]c2c1C#N`, the EC50 is > 100 µM (inactive).

For `CCc1ccc(NC(=O)CN(C)S(=O)(=O)c2ccc3[nH]c(=O)oc3c2)cc1`, the EC50 was > 100 µM (inactive).

`CCOC(=O)NC(=O)CSc1sc2c(O)cc(=O)[nH]c2c1C#N`: the EC50 was > 100 µM (inactive).

`COc1cc([N+](=O)[O-])ccc1NC(=S)NCCC(c1ccccc1)c1ccccc1`: the EC50 is > 100 µM (inactive).

Take `S=C(NCCC(c1ccccc1)c1ccccc1)Nc1ccc(Cl)cc1Cl`: the EC50 was 45.1 µM.

Consider `Cc1ccc(Cl)cc1NC(=O)CSc1sc2c(O)cc(=O)[nH]c2c1C#N`, for which the EC50 is > 100 µM (inactive).

Turning to `O=C(O)CC(C(=O)O)N1C(=O)/C(=C/c2ccc(-c3nc4ccccc4s3)o2)SC1=S` (stereo not drawn), the EC50 is > 100 µM (inactive).

`N#Cc1cccc(NC(=O)CCNS(=O)(=O)c2ccc3[nH]c(=O)oc3c2)c1`: the EC50 was > 100 µM (inactive).

In the case of `FC(F)(F)c1cccc(NC(=S)NCCC(c2ccccc2)c2ccccc2)c1`, the concentration giving a half-maximal response (EC50) is 66.4 µM.

Consider `O=[N+]([O-])c1ccc(NC(=S)NCCC(c2ccccc2)c2ccccc2)cc1`, for which the EC50 is > 100 µM (inactive).

On to `N#Cc1c(SCC(=O)Nc2nc3ccc(Br)cc3s2)sc2c(O)cc(=O)[nH]c12`, for which the EC50 is > 100 µM (inactive).

Take `O=C(N/N=C/c1ccco1)c1cc(O)c(O)c(O)c1`: the EC50 is > 100 µM (inactive).

As for `COc1cc(C(=O)NNC(=S)NC(=O)c2ccc(Cl)cc2)cc(OC)c1OC`, the EC50 is 19.1 µM.

Consider `CC(C)NC(=O)CSc1sc2c(O)cc(=O)[nH]c2c1C#N`, for which the EC50 is > 100 µM (inactive).

On to `O=C(c1ccco1)N1CCN(S(=O)(=O)c2ccc3[nH]c(=O)oc3c2)CC1`, for which the EC50 was > 100 µM (inactive).

With `CC(C(=O)NCCc1ccc(O)cc1)N1C(=O)/C(=C/c2ccco2)SC1=S` (stereo not drawn), the EC50 is > 100 µM (inactive).

For the compound `N#Cc1cccc(NC(=O)CSc2sc3c(O)cc(=O)[nH]c3c2C#N)c1`, the EC50 is > 100 µM (inactive).

As for `O=C(CCCN1C(=O)/C(=C/c2ccco2)SC1=S)Nc1ccccc1`, the EC50 was > 100 µM (inactive).

Turning to `CCOc1cccc(NC(=O)CSc2sc3c(O)cc(=O)[nH]c3c2C#N)c1`, the EC50 was > 100 µM (inactive).

Regarding `CN1CCC(=NNC(=O)c2cc(O)c(O)c(O)c2)CC1`, the EC50 is > 100 µM (inactive) and 64 µM.

As for `CC(C(=O)Nc1ccc(C(=O)O)cc1)N1C(=O)/C(=C\c2ccco2)SC1=S` (stereo not drawn), the EC50 is > 100 µM (inactive).

In the case of `N#Cc1c(SCC(=O)Nc2ccccc2C(F)(F)F)sc2c(O)cc(=O)[nH]c12`, the EC50 is > 100 µM (inactive).

For `COc1cc(Cl)c(C)cc1NC(=O)CSc1sc2c(O)cc(=O)[nH]c2c1C#N`, the EC50 was > 100 µM (inactive).

With `Cc1ccc(NC(=O)CSc2sc3c(O)cc(=O)[nH]c3c2C#N)c(F)c1`, the EC50 was > 100 µM (inactive).

Consider `O=C(N/N=C/c1ccc(F)cc1)c1cc(O)c(O)c(O)c1`, for which the EC50 was > 100 µM (inactive).

For `CCc1nnc(NC(=O)CSc2sc3c(O)cc(=O)[nH]c3c2C#N)s1`, the EC50 was > 100 µM (inactive).

As for `N#Cc1c(SCC(=O)Nc2nc3ccccc3s2)sc2c(O)cc(=O)[nH]c12`, the EC50 is > 100 µM (inactive).

Regarding `O=C(NN=Cc1cccnc1)c1cc(O)c(O)c(O)c1`, the EC50 is > 100 µM (inactive).

`CCN(C(=O)CN1C(=O)/C(=C\c2ccco2)SC1=S)C1CCS(=O)(=O)C1` (stereo not drawn): the concentration giving a half-maximal response (EC50) was 42.6 µM.

Regarding `O=C(CN1C(=O)/C(=C/c2ccco2)SC1=S)Nc1ccc(C(=O)O)cc1`, the EC50 was > 100 µM (inactive).

`CC(C(=O)Nc1ccc(C(=O)O)c(O)c1)N1C(=O)/C(=C\c2ccco2)SC1=S` (stereo not drawn): the EC50 is > 100 µM (inactive).

For the compound `CCOc1ccccc1NC(=O)CCNS(=O)(=O)c1ccc2[nH]c(=O)oc2c1`, the EC50 was > 100 µM (inactive).

`COc1cccc(/C=N/NC(=O)c2cc(O)c(O)c(O)c2)c1`: the EC50 was > 100 µM (inactive).

Regarding `COc1ccc(NC(=O)CCNS(=O)(=O)c2ccc3[nH]c(=O)oc3c2)cc1Cl`, the EC50 is > 100 µM (inactive).

Consider `O=C(CCN1C(=O)/C(=C/c2ccco2)SC1=S)Nc1ccc(O)cc1C(=O)O`, for which the EC50 was > 100 µM (inactive).

For the compound `COc1ccc(NC(=S)NCCC(c2ccccc2)c2ccccc2)cc1`, the EC50 is 52.3 µM.

On to `COc1ccc(NC(=O)C(CC(C)C)NS(=O)(=O)c2ccc3[nH]c(=O)oc3c2)cc1` (stereo not drawn), for which the EC50 was > 100 µM (inactive).

With `COc1ccccc1NC(=O)CCNS(=O)(=O)c1ccc2[nH]c(=O)oc2c1`, the EC50 was > 100 µM (inactive).

`O=C(CCN1C(=O)/C(=C\c2ccco2)SC1=S)Nc1ccc(C(=O)O)c(O)c1`: the EC50 was > 100 µM (inactive).

Turning to `O=C(CN1C(=O)/C(=C/c2ccco2)SC1=S)NCCc1ccc(O)cc1`, the EC50 is > 100 µM (inactive).

On to `N#Cc1c(SCC(=O)Nc2cccc(F)c2)sc2c(O)cc(=O)[nH]c12`, for which the EC50 was > 100 µM (inactive).

On to `O=C(CCCN1C(=O)/C(=C\c2ccco2)SC1=S)Nc1ccc(O)cc1C(=O)O`, for which the EC50 was > 100 µM (inactive).

As for `CC(C(=O)N(C)C1CCS(=O)(=O)C1)N1C(=O)/C(=C/c2ccco2)SC1=S` (stereo not drawn), the EC50 was > 100 µM (inactive).

Take `COc1ccc(CNC(=O)CSc2sc3c(O)cc(=O)[nH]c3c2C#N)cc1OC`: the EC50 is > 100 µM (inactive).

Consider `Cc1ccc(NC(=O)CCNS(=O)(=O)c2ccc3[nH]c(=O)oc3c2)cc1`, for which the EC50 is > 100 µM (inactive).

`CCSc1nnc(NC(=O)CSc2sc3c(O)cc(=O)[nH]c3c2C#N)s1`: the EC50 is > 100 µM (inactive).

As for `O=C(CN1C(=O)/C(=C\c2ccco2)SC1=S)Nc1ccc(O)cc1C(=O)O`, the EC50 is > 100 µM (inactive).

As for `CSc1cccc(NC(=O)CCNS(=O)(=O)c2ccc3[nH]c(=O)oc3c2)c1`, the EC50 is > 100 µM (inactive).

For the compound `O=C(CN1C(=O)/C(=C/c2ccco2)SC1=S)NC1CCS(=O)(=O)C1` (stereo not drawn), the EC50 is 30.6 µM.

As for `Cc1ccc(NC(=O)CCNS(=O)(=O)c2ccc3[nH]c(=O)oc3c2)c(C)c1`, the EC50 is > 100 µM (inactive).

Take `CN(C(=O)CN1C(=O)/C(=C\c2ccco2)SC1=S)C1CCS(=O)(=O)C1` (stereo not drawn): the EC50 was > 100 µM (inactive).

Regarding `O=C(N/N=C/C1CC=CCC1)c1cc(O)c(O)c(O)c1` (stereo not drawn), the EC50 was > 100 µM (inactive).

As for `O=C(CN1C(=O)/C(=C\c2ccco2)SC1=S)Nc1ccccc1C(=O)O`, the EC50 is > 100 µM (inactive).

In the case of `COc1ccc(Cl)cc1NC(=O)CSc1sc2c(O)cc(=O)[nH]c2c1C#N`, the EC50 is > 100 µM (inactive).

Turning to `COc1cc(C(=O)NN=Cc2ccccn2)cc(OC)c1OC`, the half-maximal effective concentration (EC50) was 30.8 µM.

On to `COc1ccc(NC(=O)CSc2sc3c(O)cc(=O)[nH]c3c2C#N)c(OC)c1`, for which the EC50 was > 100 µM (inactive).

With `Cc1ccc(NC(=O)CCNS(=O)(=O)c2ccc3[nH]c(=O)oc3c2)cc1F`, the EC50 was > 100 µM (inactive).

In the case of `CCN(C(=O)C(C)N1C(=O)/C(=C/c2ccco2)SC1=S)C1CCS(=O)(=O)C1` (stereo not drawn), the EC50 was 82.9 µM.
